Measurements reported in patent US20060046993A1, “Crystalline polymorphic form of irinotecan hydrochloride” (Pharmacia Italia S.p.A., priority 2004, published 2006).
Counter-ions that a name gives are not always drawn.

Test: Solubility determination of irinotecan hydrochloride Form c in comparison with Form b (excess solid shaken at room temperature, HPLC assay)
Assay type: physicochemical

SMILES: CCc1c2c(nc3ccc(OC(=O)N4CCC(N5CCCCC5)CC4)cc13)-c1cc3c(c(=O)n1C2)COC(=O)[C@]3(O)CC [Form b, (S)-4,11-Diethyl-3,4,12,14-tetrahydro-4-hydroxy-3,14-dioxo-1H-pyrano[3′,4′:6,7]-indolizino[1,2-b]quinolin-9-yl[1,4′-bipiperidine]-1-carboxylate hydrochloride]
- Irinotecan hydrochloride concentration (a = deionized water, 15 MIN): 11.03 mg/mL
- Irinotecan hydrochloride concentration (a = deionized water, 30 MIN): 12.10 mg/mL
- Irinotecan hydrochloride concentration (a = deionized water, 60 MIN): 12.12 mg/mL
- Irinotecan hydrochloride concentration (a = deionized water, 120 MIN): 11.80 mg/mL
- Irinotecan hydrochloride concentration (b = pH 1.2 buffer, 15 MIN): 0.45 mg/mL
- Irinotecan hydrochloride concentration (b = pH 1.2 buffer, 30 MIN): 0.42 mg/mL
- Irinotecan hydrochloride concentration (b = pH 1.2 buffer, 60 MIN): 0.44 mg/mL
- Irinotecan hydrochloride concentration (b = pH 1.2 buffer, 120 MIN): 0.40 mg/mL
- Irinotecan hydrochloride concentration (c = lactic acid pH 3.5, 15 MIN): 10.27 mg/mL
- Irinotecan hydrochloride concentration (c = lactic acid pH 3.5, 24 HOURS): 11.06 mg/mL
- Irinotecan hydrochloride concentration (c = lactic acid pH 3.5, 30 MIN): 10.38 mg/mL
- Irinotecan hydrochloride concentration (c = lactic acid pH 3.5, 60 MIN): 10.17 mg/mL
- Irinotecan hydrochloride concentration (c = lactic acid pH 3.5, 120 MIN): 11.13 mg/mL
